The text below walks through data of US6369106B1 (Yissum Research Development Company of the Hebrew …, priority 1996, dated 2002).

Data set [1] is described as follows: Crossing the blood-brain-barrier: compound level in brain extracts by HPLC after IP injection. Format: in vivo, C57BL/6J mice. Particulars: mice, IP 0.25-4 mg, 15 min after injection. The protocol: Detection of compound j (referred to in this Example also as CEA) was established using high performance liquid chromatography (HPLC). To this end, CEA was treated with a fluorescent thiolyte reagent (monobromobimane reagent) and analyzed on an HPLC column.
Crossing the blood-brain-barrier: In vivo experiments were carried out on C57BL/6J mice (15 grams) injected IP with compound J. After incubation (15 min, 60 min or 4 hours) the mice were anesthetized with ether and blood samples were drawn. Then mice underwent perfusion with 50 ml of saline, injected into the right ventricle. The levels of compound I in the brain and in the plasma were detected by selective fluorescent labeling using high performance liquid chromatography (HPLC).
Increasing amounts of compound J were injected IP and 15 min later, mice were perfused with saline and compound J levels in the brain extracts were determined by HPLC chromatography (FIG. 5b), as compared to a control, pure, uninjected compound J (FIG. 5a).

Data set [2] relates to Neuroblastoma SHSY5Y (NB) cells. In words: Protection from oxidative stress in vitro, neutral red survival assay. Format: cell-based. Particulars: compound at 0.1 mM, 6-OHDA 0.1-0.25 mM, MPP+ 0.5-2 mM, 24 hours. The protocol: Protection from oxidative stress in vitro: Neuroblastoma SHSY5Y (NB) cells were maintained in Dulbeco's Modified Eagle's Medium (DMEM), supplemented with 8% FCS and 8% horse serum, penicillin (25 μg/ml), streptomycin (25 μg/ml), 2 mM L-glutamine and 400 μg/ml G418 (Gibco/BRL). For protection experiments cells were subcultured (in 2% serum) to poly-L-lysine-coated 96-well microtiter plates (Nunc), 100 μl of 5×10^5 cells/ml, CEA was applied to the cells in each well and 4 hours later DA, L-dopa (levodopa), 6-OHDA and MPP+ were added for 24 hours.
Survival was assayed by adding neutral red (0.34%, Sigma) to cells in DCCM-1 medium (0.1 ml/well, Bet-Haemek) and incubation for 2 hour at 37° C. The cells were then washed with cold PBS containing 10 mM MgCl2 and the dye was dissolved in 50% ethanol in 50% Somerson buffer (70 mM sodium citrate, 30 mM citric acid, 0.1 N HCl). ELISA reader (590 nm) was used to measure the remaining color intensity.

Data set [3] has as its system GSH levels. In words: Brain GSH levels after IP injection (HPLC). Format: in vivo, C57BL/6J mice.

As to `CC(=O)NC(CS)C(N)=O` (stereo not shown) [compound J], the “Compound level in the brain” value in data set [1] is recorded as “concentration-dependent increase”. Besides, the “Protection of NB cells against toxicity (>50%) of DA, L-dopa, 6-OHDA and MPP+” value in data set [2] was “protect the cells”; in data set [2] (listed as Compound J), “protect NB cells”. In addition, the “Endogenous GSH levels in mice brain, effect in words” value in data set [3] was “increases endogenous GSH levels”.
